Experimental data taken from ChEMBL document CHEMBL1681728, “An automated, polymer-assisted strategy for the preparation of urea and thiourea derivatives of 15-membered azalides as potential antimalarial chemotherapeutics” (Bioorg Med Chem, 2011).

Key:
Assay type in all cases: functional, organism-based
Plasmodium falciparum [1] = assay: Antimalarial activity against chloroquine-sensitive Plasmodium falciparum D6 assessed as inhibition of [3H]hypoxanthine incorporation after 96 hrs by microtiter plate scintillation counting
Plasmodium falciparum [2] = assay: Antimalarial activity against chloroquine-,pyrimethamine-resistant Plasmodium falciparum W2 assessed as inhibition of [3H]hypoxanthine incorporation after 96 hrs by microtiter plate scintillation counting
Plasmodium falciparum [3] = assay: Antimalarial activity against multidrug-resistant Plasmodium falciparum TM91C235 assessed as inhibition of [3H]hypoxanthine incorporation after 96 hrs by microtiter plate scintillation counting

Structure (SMILES) | IC50 (Plasmodium falciparum [1]) | IC50 (Plasmodium falciparum [2]) | IC50 (Plasmodium falciparum [3])
CC[C@H]1OC(=O)[C@H](C)[C@@H](O[C@H]2C[C@@](C)(OC)[C@@H](O)[C@H](C)O2)[C@H](C)[C@@H](O[C@@H]2O[C@H](C)C[C@H](N(C)C)[C@H]2O)[C@](C)(O)C[C@@H](C)CN(CCCNC(=O)Nc2ccc(OCc3ccccc3)cc2)[C@H](C)[C@@H](O)[C@]1(C)O | 0.299 µM | 0.175 µM | 0.146 µM
CC[C@H]1OC(=O)[C@H](C)[C@@H](O[C@H]2C[C@@](C)(OC)[C@@H](O)[C@H](C)O2)[C@H](C)[C@@H](O[C@@H]2O[C@H](C)C[C@H](N(C)C)[C@H]2O)[C@](C)(O)C[C@@H](C)CN(CCCNC(=S)Nc2ccc(N3CCOCC3)nc2)[C@H](C)[C@@H](O)[C@]1(C)O | 2.84 µM | 1.96 µM | 1.57 µM
CC[C@H]1OC(=O)[C@H](C)[C@@H](O[C@H]2C[C@@](C)(OC)[C@@H](O)[C@H](C)O2)[C@H](C)[C@@H](O[C@@H]2O[C@H](C)C[C@H](N(C)C)[C@H]2O)[C@](C)(O)C[C@@H](C)CN(CCCNC(=S)Nc2ccc(OC)cc2)[C@H](C)[C@@H](O)[C@]1(C)O | 0.48 µM | 0.077 µM | 0.209 µM
CC[C@H]1OC(=O)[C@H](C)[C@@H](O[C@H]2C[C@@](C)(OC)[C@@H](O)[C@H](C)O2)[C@H](C)[C@@H](O[C@@H]2O[C@H](C)C[C@H](N(C)C)[C@H]2O)[C@](C)(O)C[C@@H](C)CN(CCCNC(=O)NCCc2cccs2)[C@H](C)[C@@H](O)[C@]1(C)O | 0.932 µM | 1.04 µM | 0.405 µM
CC[C@H]1OC(=O)[C@H](C)[C@@H](O[C@H]2C[C@@](C)(OC)[C@@H](O)[C@H](C)O2)[C@H](C)[C@@H](O[C@@H]2O[C@H](C)C[C@H](N(C)C)[C@H]2O)[C@](C)(O)C[C@@H](C)CN(CCCNC(=O)Nc2ccc(C)cc2C)[C@H](C)[C@@H](O)[C@]1(C)O | 0.47 µM | 0.179 µM | 0.232 µM
CC[C@H]1OC(=O)[C@H](C)[C@@H](O[C@H]2C[C@@](C)(OC)[C@@H](O)[C@H](C)O2)[C@H](C)[C@@H](O[C@@H]2O[C@H](C)C[C@H](N(C)C)[C@H]2O)[C@](C)(O)C[C@@H](C)CN(CCCNC(=O)Nc2ccc(F)c(F)c2)[C@H](C)[C@@H](O)[C@]1(C)O | 0.3 µM | 0.0896 µM | 0.127 µM
CC[C@H]1OC(=O)[C@H](C)[C@@H](O[C@H]2C[C@@](C)(OC)[C@@H](O)[C@H](C)O2)[C@H](C)[C@@H](O[C@@H]2O[C@H](C)C[C@H](N(C)C)[C@H]2O)[C@](C)(O)C[C@@H](C)CN(CCCNC(=S)Nc2ccc(N(C)C)c3ccccc23)[C@H](C)[C@@H](O)[C@]1(C)O | 0.326 µM | 0.175 µM | 0.18 µM
CC[C@H]1OC(=O)[C@H](C)[C@@H](O[C@H]2C[C@@](C)(OC)[C@@H](O)[C@H](C)O2)[C@H](C)[C@@H](O[C@@H]2O[C@H](C)C[C@H](N(C)C)[C@H]2O)[C@](C)(O)C[C@@H](C)CN(CCCNC(=O)Nc2ccc(C(C)C)cc2)[C@H](C)[C@@H](O)[C@]1(C)O | 0.225 µM | 0.0709 µM | 0.0783 µM
CC[C@H]1OC(=O)[C@H](C)[C@@H](O[C@H]2C[C@@](C)(OC)[C@@H](O)[C@H](C)O2)[C@H](C)[C@@H](O[C@@H]2O[C@H](C)C[C@H](N(C)C)[C@H]2O)[C@](C)(O)C[C@@H](C)CN(CCCNC(=S)NCc2ccco2)[C@H](C)[C@@H](O)[C@]1(C)O | 0.329 µM | 0.449 µM | 0.24 µM
CC[C@H]1OC(=O)[C@H](C)[C@@H](O[C@H]2C[C@@](C)(OC)[C@@H](O)[C@H](C)O2)[C@H](C)[C@@H](O[C@@H]2O[C@H](C)C[C@H](N(C)C)[C@H]2O)[C@](C)(O)C[C@@H](C)CN(CCCNC(=O)Nc2ccc3c(c2)CCO3)[C@H](C)[C@@H](O)[C@]1(C)O | 2.05 µM | 1.59 µM | 0.923 µM
CC[C@H]1OC(=O)[C@H](C)[C@@H](O[C@H]2C[C@@](C)(OC)[C@@H](O)[C@H](C)O2)[C@H](C)[C@@H](O[C@@H]2O[C@H](C)C[C@H](N(C)C)[C@H]2O)[C@](C)(O)C[C@@H](C)CN(CCCNC(=O)Nc2ccc(CC#N)cc2)[C@H](C)[C@@H](O)[C@]1(C)O | 1.79 µM | 0.149 µM | 0.571 µM
CC[C@H]1OC(=O)[C@H](C)[C@@H](O[C@H]2C[C@@](C)(OC)[C@@H](O)[C@H](C)O2)[C@H](C)[C@@H](O[C@@H]2O[C@H](C)C[C@H](N(C)C)[C@H]2O)[C@](C)(O)C[C@@H](C)CN(CCCNC(=S)Nc2cccc(C(F)(F)F)c2)[C@H](C)[C@@H](O)[C@]1(C)O | 0.12 µM | 0.0303 µM | 0.054 µM
CC[C@H]1OC(=O)[C@H](C)[C@@H](O[C@H]2C[C@@](C)(OC)[C@@H](O)[C@H](C)O2)[C@H](C)[C@@H](O[C@@H]2O[C@H](C)C[C@H](N(C)C)[C@H]2O)[C@](C)(O)C[C@@H](C)CN(CCCNC(=S)Nc2ccc(F)cc2)[C@H](C)[C@@H](O)[C@]1(C)O | 0.32 µM | 0.0728 µM | 0.139 µM
CC[C@H]1OC(=O)[C@H](C)[C@@H](O[C@H]2C[C@@](C)(OC)[C@@H](O)[C@H](C)O2)[C@H](C)[C@@H](O[C@@H]2O[C@H](C)C[C@H](N(C)C)[C@H]2O)[C@](C)(O)C[C@@H](C)CN(CCCNC(=S)NC(=O)c2ccccc2)[C@H](C)[C@@H](O)[C@]1(C)O | 0.297 µM | 0.107 µM | 0.288 µM
CC[C@H]1OC(=O)[C@H](C)[C@@H](O[C@H]2C[C@@](C)(OC)[C@@H](O)[C@H](C)O2)[C@H](C)[C@@H](O[C@@H]2O[C@H](C)C[C@H](N(C)C)[C@H]2O)[C@](C)(O)C[C@@H](C)CN(CCCNC(=S)NC2CCCCCCCCCCC2)[C@H](C)[C@@H](O)[C@]1(C)O | 0.265 µM | 0.085 µM | 0.14 µM
CC[C@H]1OC(=O)[C@H](C)[C@@H](O[C@H]2C[C@@](C)(OC)[C@@H](O)[C@H](C)O2)[C@H](C)[C@@H](O[C@@H]2O[C@H](C)C[C@H](N(C)C)[C@H]2O)[C@](C)(O)C[C@@H](C)CN(CCCNC(=O)Nc2cccs2)[C@H](C)[C@@H](O)[C@]1(C)O | 0.964 µM | 0.721 µM | 0.549 µM
CC[C@H]1OC(=O)[C@H](C)[C@@H](O[C@H]2C[C@@](C)(OC)[C@@H](O)[C@H](C)O2)[C@H](C)[C@@H](O[C@@H]2O[C@H](C)C[C@H](N(C)C)[C@H]2O)[C@](C)(O)C[C@@H](C)CN(CCCNC(=S)Nc2cccc(-c3ccccc3)c2OC)[C@H](C)[C@@H](O)[C@]1(C)O | 0.0581 µM | 0.114 µM | 0.0553 µM
CC[C@H]1OC(=O)[C@H](C)[C@@H](O[C@H]2C[C@@](C)(OC)[C@@H](O)[C@H](C)O2)[C@H](C)[C@@H](O[C@@H]2O[C@H](C)C[C@H](N(C)C)[C@H]2O)[C@](C)(O)C[C@@H](C)CN(CCCNC(=O)Nc2ccc(Cl)cc2)[C@H](C)[C@@H](O)[C@]1(C)O | 0.188 µM | 0.0993 µM | 0.0904 µM
CC[C@H]1OC(=O)[C@H](C)[C@@H](O[C@H]2C[C@@](C)(OC)[C@@H](O)[C@H](C)O2)[C@H](C)[C@@H](O[C@@H]2O[C@H](C)C[C@H](N(C)C)[C@H]2O)[C@](C)(O)C[C@@H](C)CN(CCCNC(=S)Nc2ccc(/N=N/c3ccccc3)cc2)[C@H](C)[C@@H](O)[C@]1(C)O | 0.107 µM | 0.0479 µM | 0.0963 µM
CC[C@H]1OC(=O)[C@H](C)[C@@H](O[C@H]2C[C@@](C)(OC)[C@@H](O)[C@H](C)O2)[C@H](C)[C@@H](O[C@@H]2O[C@H](C)C[C@H](N(C)C)[C@H]2O)[C@](C)(O)C[C@@H](C)CN(CCCNC(=S)Nc2cccc([N+](=O)[O-])c2)[C@H](C)[C@@H](O)[C@]1(C)O | 0.0534 µM | 0.0483 µM | 0.0429 µM
CCc1ccccc1NC(=S)NCCCN1C[C@H](C)C[C@@](C)(O)[C@H](O[C@@H]2O[C@H](C)C[C@H](N(C)C)[C@H]2O)[C@@H](C)[C@H](O[C@H]2C[C@@](C)(OC)[C@@H](O)[C@H](C)O2)[C@@H](C)C(=O)O[C@H](CC)[C@@](C)(O)[C@H](O)[C@H]1C | 0.445 µM | 0.0962 µM | 0.252 µM
CC[C@H]1OC(=O)[C@H](C)[C@@H](O[C@H]2C[C@@](C)(OC)[C@@H](O)[C@H](C)O2)[C@H](C)[C@@H](O[C@@H]2O[C@H](C)C[C@H](N(C)C)[C@H]2O)[C@](C)(O)C[C@@H](C)CN(CCCNC(=S)Nc2ccc(-n3cccn3)cc2)[C@H](C)[C@@H](O)[C@]1(C)O | 0.16 µM | 0.109 µM | 0.101 µM
CCNC(=O)NCCCN1C[C@H](C)C[C@@](C)(O)[C@H](O[C@@H]2O[C@H](C)C[C@H](N(C)C)[C@H]2O)[C@@H](C)[C@H](O[C@H]2C[C@@](C)(OC)[C@@H](O)[C@H](C)O2)[C@@H](C)C(=O)O[C@H](CC)[C@@](C)(O)[C@H](O)[C@H]1C | 13.7 µM | 13.7 µM | 1.98 µM
CC[C@H]1OC(=O)[C@H](C)[C@@H](O[C@H]2C[C@@](C)(OC)[C@@H](O)[C@H](C)O2)[C@H](C)[C@@H](O[C@@H]2O[C@H](C)C[C@H](N(C)C)[C@H]2O)[C@](C)(O)C[C@@H](C)CN(CCCNC(=O)Nc2ccc3c(c2)OCCCO3)[C@H](C)[C@@H](O)[C@]1(C)O | 0.0281 µM | 0.0408 µM | 0.06 µM
CC[C@H]1OC(=O)[C@H](C)[C@@H](O[C@H]2C[C@@](C)(OC)[C@@H](O)[C@H](C)O2)[C@H](C)[C@@H](O[C@@H]2O[C@H](C)C[C@H](N(C)C)[C@H]2O)[C@](C)(O)C[C@@H](C)CN(CCCNC(=S)Nc2ccc(C#N)cc2)[C@H](C)[C@@H](O)[C@]1(C)O | 0.132 µM | 0.05 µM | 0.0782 µM
CC[C@H]1OC(=O)[C@H](C)[C@@H](O[C@H]2C[C@@](C)(OC)[C@@H](O)[C@H](C)O2)[C@H](C)[C@@H](O[C@@H]2O[C@H](C)C[C@H](N(C)C)[C@H]2O)[C@](C)(O)C[C@@H](C)CN(CCCNC(=S)Nc2ccc3c(c2)OCO3)[C@H](C)[C@@H](O)[C@]1(C)O | 0.329 µM | 0.182 µM | 0.173 µM
